The source of these data is US12662451B2, “Chemical compounds and uses thereof” (GLAXOSMITHKLINE INTELLECTUAL PROPERTY (NO.4) LIMITED, priority 2023, dated 2026).

Like-named read-outs stand apart in the source and are kept apart here.

The test system of data set [1] is SW48 human colorectal cancer cells (MSI-H cancer cells). As to the kind of experiment: SW48 cell viability, CellTiter-Glo, 120 hours (Example B). The following applies: Homo sapiens.
The target of data set [2] is T1, recombinant full-length WRN protein (1-1432) (Homo sapiens, UniProt Q14191).
T1 construct: recombinant full-length WRN protein (1-1432)
T1 sequence (Q14191 whole entry): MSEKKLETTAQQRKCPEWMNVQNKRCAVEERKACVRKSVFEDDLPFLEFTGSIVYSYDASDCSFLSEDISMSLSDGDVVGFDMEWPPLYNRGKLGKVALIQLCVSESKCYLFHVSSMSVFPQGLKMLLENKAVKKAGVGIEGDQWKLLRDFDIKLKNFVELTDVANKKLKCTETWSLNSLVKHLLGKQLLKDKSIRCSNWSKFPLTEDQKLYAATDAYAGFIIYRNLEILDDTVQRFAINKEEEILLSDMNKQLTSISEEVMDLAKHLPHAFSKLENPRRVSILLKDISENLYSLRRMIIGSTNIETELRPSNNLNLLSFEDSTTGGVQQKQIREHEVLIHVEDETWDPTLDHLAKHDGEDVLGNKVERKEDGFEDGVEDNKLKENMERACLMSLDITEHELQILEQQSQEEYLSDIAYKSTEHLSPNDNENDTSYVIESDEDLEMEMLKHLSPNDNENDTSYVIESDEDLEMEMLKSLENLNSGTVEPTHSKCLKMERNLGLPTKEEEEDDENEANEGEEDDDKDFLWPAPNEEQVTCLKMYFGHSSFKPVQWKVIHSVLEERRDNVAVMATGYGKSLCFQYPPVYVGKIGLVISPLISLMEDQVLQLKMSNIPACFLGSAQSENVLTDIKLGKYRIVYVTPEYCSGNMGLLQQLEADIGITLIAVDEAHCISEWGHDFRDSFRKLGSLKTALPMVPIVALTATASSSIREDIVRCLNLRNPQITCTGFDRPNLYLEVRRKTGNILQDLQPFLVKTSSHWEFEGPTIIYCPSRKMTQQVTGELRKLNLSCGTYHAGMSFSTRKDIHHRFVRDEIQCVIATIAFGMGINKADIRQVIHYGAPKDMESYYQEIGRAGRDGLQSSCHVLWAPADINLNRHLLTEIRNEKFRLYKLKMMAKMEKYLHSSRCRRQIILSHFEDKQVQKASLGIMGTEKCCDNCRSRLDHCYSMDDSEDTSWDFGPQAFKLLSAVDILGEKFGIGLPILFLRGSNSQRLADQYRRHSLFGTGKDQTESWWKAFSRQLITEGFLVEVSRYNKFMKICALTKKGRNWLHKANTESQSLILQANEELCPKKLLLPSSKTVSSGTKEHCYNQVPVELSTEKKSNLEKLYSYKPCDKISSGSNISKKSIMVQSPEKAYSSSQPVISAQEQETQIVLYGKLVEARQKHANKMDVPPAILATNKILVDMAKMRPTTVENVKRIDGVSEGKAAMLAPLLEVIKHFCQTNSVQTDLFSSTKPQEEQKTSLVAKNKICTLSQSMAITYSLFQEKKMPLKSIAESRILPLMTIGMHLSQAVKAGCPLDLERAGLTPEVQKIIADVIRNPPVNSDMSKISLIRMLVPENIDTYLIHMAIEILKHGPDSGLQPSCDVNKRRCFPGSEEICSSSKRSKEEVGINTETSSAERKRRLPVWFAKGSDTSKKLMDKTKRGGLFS
As to the kind of experiment: WRN unwinding activity, fluorogenic 384-well assay (Example A). The following applies: WRN unwinding activity, 4 hr; Table 2; read-out: 4 hr UNW pIC50 (converted). The format is biochemical. An outline of the steps:
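200 pM enzyme (2× stock) preincubated with compound 4 h at ambient temperature, then 200 μM ATP and 12 nM quenched TAMRA-labelled dsDNA (2× stocks) added for 60 min; EDTA-quenched. Buffer 25 mM Tris pH 8.0, 5 mM NaCl, 2 mM MgCl2. Fluorescence at 525/598 nm; pIC50 from four-parameter fit.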

A short description of data set [3]: Cell culture media unbound percentage and stability by rapid equilibrium dialysis (Example C). The format is in vitro ADME. The following applies: bovine, cell assay medium (RPMI-1640 with 10% fetal bovine serum), pH 7.4, rapid equilibrium dialysis, 4 hours at 37° C., read-out: Cell Culture Media Binding (% unbound). The procedure, abridged: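 Compound spiked into cell culture medium at nominal 1 μM and dialysed against PBS (100 mM sodium phosphate + 150 mM NaCl, pH 7.4) by rapid equilibrium dialysis, triplicate, 4 h at 37° C with shaking. LC-MS/MS peak area ratios gave percent unbound (receiver/donor) and percent stability (240 min vs 0 min).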

In data set [4] the test system is SW48 human colorectal cancer cells. Description: Calculated free drug potency in SW48 cell assay, corrected with media free fraction (Example C). It is filed as cell-based. The following applies: Homo sapiens, SW48, SW48 pCC50 corrected with measured free fraction in cell assay media. An outline of the steps:
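Compound spiked at nominal 1 μM into cell assay medium and dialysed against PBS (100 mM sodium phosphate, 150 mM NaCl, pH 7.4) by rapid equilibrium dialysis, 4 h, 37 °C, shaking. Percent unbound from LC-MS/MS peak area ratios (240 min vs 0 min); cell assay concentrations corrected by this free fraction.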

Setting [5] is: SW48, 120 h, read-out: SW48 pCC50, SW48 cell viability, 120 hours incubation (converted), Table 2.
[6] abbreviates: SW48, read-out: SW48 pCC50, measured potency from Example B, as repeated in Table 3 (converted).

Regarding `CC(=O)N(C)[C@H]1C[C@H](c2ccc(N(C)S(=O)(=O)c3ccc4c(c3)nc(C)n4C)cc2)[C@@H](C(=O)O)[C@H](C(=O)Nc2ccc(C(F)(F)F)cc2F)C1` (stereo in doubt) [Example 294, rel-(1R,2R,4S,6S)-2-((2-fluoro-4-(trifluoromethyl)phenyl)carbamoyl)-4-(N-methylacetamido)-6-(4-((N,1,2-trimethyl-1H-benzo[d]imidazole)-5-sulfonamido)phenyl)cyclohexane-1-carboxylic acid], the CC50 was 6310 nM in data set [1] (setting [5]), 6310 nM in data set [1] (setting [6]) and 1620 nM in data set [4]. The IC50 in data set [2] was 1.58 nM. In data set [3], the fraction unbound at 4 h, 1 µM was determined as 0.256.

With `Cc1nc2cc(S(=O)(=O)N(C)c3ccc([C@H]4C[C@@H](N)C[C@@H](C(=O)Nc5ccc(C(F)(F)F)cc5F)[C@@H]4C(=O)O)cc3)ccc2n1C` (stereo in doubt) [Example 301, rel-(1R,2R,4R,6S)-4-amino-2-((2-fluoro-4-(trifluoromethyl)phenyl)carbamoyl)-6-(4-((N,1,2-trimethyl-1H-benzo[d]imidazole)-5-sulfonamido)phenyl)cyclohexane-1-carboxylic acid], the CC50 in data set [1] (setting [5]) is 3980 nM; in data set [1] (setting [6]), 3980 nM; in data set [4] it was 1620 nM. Also, the IC50 in data set [2] is 1.58 nM. Also, the fraction unbound at 4 h, 1 µM in data set [3] came to 0.406.

`CC(=O)N1C[C@H](c2ccc(N(C)S(=O)(=O)c3ccc4c(c3)nc(C)n4C)cc2)[C@@H](C(=O)O)[C@H](C(=O)Nc2ccc(C(F)(F)F)cc2F)C1` (stereo in doubt) [Example 310, rel-(3R,4S,5R)-1-acetyl-3-((2-fluoro-4-(trifluoromethyl)phenyl)carbamoyl)-5-(4-((N,1,2-trimethyl-1H-benzo[d]imidazole)-5-sulfonamido)phenyl)piperidine-4-carboxylic acid]: the CC50 was 1580 nM in data set [1] (setting [5]), 1580 nM in data set [1] (setting [6]) and 437 nM in data set [4]. Moreover, the IC50 in data set [2] was 1.58 nM. Moreover, the fraction unbound at 4 h, 1 µM in data set [3] was found to be 0.273.

`Cc1nc2cc(S(=O)(=O)N(C)c3ccc([C@H]4C[C@@H](OC(C)C)C[C@@H](C(=O)Nc5ccc(C(F)(F)F)cc5F)[C@@H]4C(=O)O)cc3)ccc2n1C` (stereo in doubt) [Example 311, rel-(1R,2R,4R,6S)-2-((2-fluoro-4-(trifluoromethyl)phenyl)carbamoyl)-4-isopropoxy-6-(4-((N,1,2-trimethyl-1H-benzo[d]imidazole)-5-sulfonamido)phenyl)cyclohexane-1-carboxylic acid]: the figures for the CC50 in data set [1] (setting [5]), in data set [1] (setting [6]) and in data set [4] were 251 nM, 251 nM and 21.4 nM, respectively. Moreover, the IC50 in data set [2] was 2.51 nM. In addition, in data set [3], the fraction unbound at 4 h, 1 µM came to 0.0856.

As to `Cc1nc2cc(S(=O)(=O)N(C)c3ccc([C@H]4C[C@@H](OCC5CC5)C[C@@H](C(=O)Nc5ccc(C(F)(F)F)cc5F)[C@@H]4C(=O)O)cc3)ccc2n1C` (stereo in doubt) [Example 314, rel-(1R,2R,4R,6S)-4-(cyclopropylmethoxy)-2-((2-fluoro-4-(trifluoromethyl)phenyl)carbamoyl)-6-(4-((N,1,2-trimethyl-1H-benzo[d]imidazole)-5-sulfonamido)phenyl)cyclohexane-1-carboxylic acid], the CC50 in data set [1] (setting [5]) is 158 nM; in data set [1] (setting [6]), 158 nM; in data set [4], 12.6 nM. Besides, in data set [2], the IC50 was 1.58 nM. Besides, the fraction unbound at 4 h, 1 µM in data set [3] came to 0.0795.

`COCCO[C@@H]1C[C@H](C(=O)Nc2ccc(C(F)(F)F)cc2F)[C@@H](C(=O)O)[C@H](c2ccc(N(C)S(=O)(=O)c3ccc4c(c3)nc(C)n4C)cc2)C1` (stereo in doubt) [Example 315, rel-(1R,2R,4R,6S)-2-((2-fluoro-4-(trifluoromethyl)phenyl)carbamoyl)-4-(2-methoxyethoxy)-6-(4-((N,1,2-trimethyl-1H-benzo[d]imidazole)-5-sulfonamido)phenyl)cyclohexane-1-carboxylic acid]: the CC50 in data set [1] (setting [5]) was 10000 nM; in data set [4], 3800 nM. The IC50 in data set [2] was 63.1 nM. In addition, the fraction unbound at 4 h, 1 µM in data set [3] is 0.384.
